Laboratory results: US20260365670A1, “EGFR INHIBITORS AND USES THEREOF” (DIZAL (JIANGSU) PHARMACEUTICAL CO., LTD., priority 2022, published 2026)
Like-named read-outs stand apart in the source and are kept apart here.

Key:
EGFR wild type = target: T1, EGFR wild type (Homo sapiens, UniProt P00533); assay: Inhibition of EGFR wild type biochemical enzymatic activity (HTRF); conditions: EGFR WT, 1 mM ATP, 1 h, room temperature, read-out: IC50 (nM) @WT
T1 construct: purchased Carna Bio
Method in brief: (§1)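 Kinase activity is measured by HTRF detection of biotinylated TK substrate (1 μM) phosphorylation at 1 mM ATP. Incubation lasts 1 h at room temperature before an EDTA stop, and IC50 is fitted with a four-parameter logistic model.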

EGFR (C797S L858R) = target: T2, EGFR (C797S L858R) (Homo sapiens, UniProt P00533, C797S/L858R); assay: Inhibition of EGFR (C797S L858R) biochemical enzymatic activity (HTRF); conditions: EGFR L858-C797S, 1 mM ATP, 1 h, room temperature, read-out: IC50 (nM) @L858-C797S
T2 construct: purchased signalchem
Method in brief: as §1

EGFR (d746-750 C797S) = target: T3, EGFR (d746-750 C797S) (Homo sapiens, UniProt P00533, C797S/DEL746-750); assay: Inhibition of EGFR (d746-750 C797S) biochemical enzymatic activity (HTRF); conditions: EGFR Del19-C797S, 1 mM ATP, 1 h, room temperature, read-out: IC50 (nM) @Del19-C797S
T3 construct: purchased signalchem
Method in brief: as §1

A-431 = assay: Cell proliferation GI50, A-431 cells (Table 6); type: cell-based
EGFR Exon19Del/T790M = target: T4, EGFR Exon19Del/T790M (Homo sapiens, UniProt P00533, DEL746-750/T790M); assay: Inhibition of EGFR Exon19Del/T790M biochemical enzymatic activity (HTRF); conditions: EGFR Del19-T790M, 1 mM ATP, 1 h, room temperature, read-out: IC50 (nM) @Del19-T790M
T4 construct: purchased Carna Bio
Method in brief: as §1

EGFR[T790M/C797S/L858R] = target: T5, EGFR[T790M/C797S/L858R] (Homo sapiens, UniProt P00533, C797S/L858R/T790M); assay: Inhibition of EGFR[T790M/C797S/L858R] biochemical enzymatic activity (HTRF); conditions: EGFR T790M-C797S-L858R, 1 mM ATP, 1 h, room temperature, read-out: IC50 (nM) @T790M- C797S - L858R
T5 construct: purchased Carna Bio
T5 sequence (P00533 25-1210 T790M/C797S/L858R): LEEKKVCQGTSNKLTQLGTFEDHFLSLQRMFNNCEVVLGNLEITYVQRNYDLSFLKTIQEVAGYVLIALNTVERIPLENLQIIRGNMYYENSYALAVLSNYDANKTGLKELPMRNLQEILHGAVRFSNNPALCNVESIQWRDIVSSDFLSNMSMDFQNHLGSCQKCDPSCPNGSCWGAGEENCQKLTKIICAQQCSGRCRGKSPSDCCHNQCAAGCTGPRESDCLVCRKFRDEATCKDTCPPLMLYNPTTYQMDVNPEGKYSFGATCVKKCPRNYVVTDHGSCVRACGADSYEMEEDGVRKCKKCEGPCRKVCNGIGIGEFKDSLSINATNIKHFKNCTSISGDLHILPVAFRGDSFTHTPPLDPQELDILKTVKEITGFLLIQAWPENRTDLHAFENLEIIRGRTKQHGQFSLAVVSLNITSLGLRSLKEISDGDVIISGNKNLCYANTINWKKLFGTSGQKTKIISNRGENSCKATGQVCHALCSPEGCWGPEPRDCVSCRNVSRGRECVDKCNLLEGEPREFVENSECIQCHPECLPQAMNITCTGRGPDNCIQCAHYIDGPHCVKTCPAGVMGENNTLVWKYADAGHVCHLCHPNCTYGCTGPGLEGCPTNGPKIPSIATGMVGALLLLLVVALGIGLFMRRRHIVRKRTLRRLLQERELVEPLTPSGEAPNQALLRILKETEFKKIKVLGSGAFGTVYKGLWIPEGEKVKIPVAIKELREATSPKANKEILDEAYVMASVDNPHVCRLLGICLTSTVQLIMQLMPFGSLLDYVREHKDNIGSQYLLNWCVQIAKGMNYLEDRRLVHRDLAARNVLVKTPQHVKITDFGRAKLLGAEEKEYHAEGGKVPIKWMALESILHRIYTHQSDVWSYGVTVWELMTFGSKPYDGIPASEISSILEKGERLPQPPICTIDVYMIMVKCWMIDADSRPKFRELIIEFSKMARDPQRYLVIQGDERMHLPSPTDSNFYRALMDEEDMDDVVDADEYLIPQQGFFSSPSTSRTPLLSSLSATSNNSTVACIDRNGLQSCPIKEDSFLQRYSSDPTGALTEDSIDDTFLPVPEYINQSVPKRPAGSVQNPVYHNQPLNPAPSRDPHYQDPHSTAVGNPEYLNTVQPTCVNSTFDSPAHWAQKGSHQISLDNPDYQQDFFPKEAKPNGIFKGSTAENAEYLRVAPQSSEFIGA
Method in brief: as §1

[1] = tested on: Ba/F3 cells expressing EGFR mutations; assay: Cell proliferation assay, Ba/F3 cells expressing EGFR mutations (CellTiter-Glo, 72 hours); type: cell-based; conditions: CellTiter-Glo
Method in brief: (§2)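 In RPMI1640 medium (PC-9 with 10% FBS), each cell line was seeded at its own density: Ba/F3 5000 and PC-9 500 per well. A compound series was added the next day, with a time-zero viability plate read in parallel. Percent proliferation was subtracted for G0 and referenced to DMSO, and GI50 was derived by curve fitting.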

PC-9 = assay: Cell proliferation assay, PC-9 cells (CellTiter-Glo, 72 hours); type: cell-based; conditions: PC9 cells, CellTiter-Glo, read-out: PC9 GI50
Method in brief: as §2

[2] = target: T6, EGFR[T790M/C797S/d746-750] (Homo sapiens, UniProt P00533, C797S/DEL746-750/T790M); assay: Inhibition of EGFR[T790M/C797S/d746-750] biochemical enzymatic activity (HTRF); conditions: EGFR T790M-C797S-Del19, 1 mM ATP, 1 h, room temperature, read-out: IC50 (nM) @T790M - C797S - Del19
T6 construct: purchased Carna Bio
Method in brief: as §1

EGFR L858R/T790M = target: T7, EGFR L858R/T790M (Homo sapiens, UniProt P00533, L858R/T790M); assay: Inhibition of EGFR L858R/T790M biochemical enzymatic activity (HTRF); conditions: EGFR L858R-T790M, 1 mM ATP, 1 h, room temperature, read-out: IC50 (nM) @L858R-T790M
T7 construct: purchased Carna Bio
T7 sequence (P00533 25-1210 T790M/L858R): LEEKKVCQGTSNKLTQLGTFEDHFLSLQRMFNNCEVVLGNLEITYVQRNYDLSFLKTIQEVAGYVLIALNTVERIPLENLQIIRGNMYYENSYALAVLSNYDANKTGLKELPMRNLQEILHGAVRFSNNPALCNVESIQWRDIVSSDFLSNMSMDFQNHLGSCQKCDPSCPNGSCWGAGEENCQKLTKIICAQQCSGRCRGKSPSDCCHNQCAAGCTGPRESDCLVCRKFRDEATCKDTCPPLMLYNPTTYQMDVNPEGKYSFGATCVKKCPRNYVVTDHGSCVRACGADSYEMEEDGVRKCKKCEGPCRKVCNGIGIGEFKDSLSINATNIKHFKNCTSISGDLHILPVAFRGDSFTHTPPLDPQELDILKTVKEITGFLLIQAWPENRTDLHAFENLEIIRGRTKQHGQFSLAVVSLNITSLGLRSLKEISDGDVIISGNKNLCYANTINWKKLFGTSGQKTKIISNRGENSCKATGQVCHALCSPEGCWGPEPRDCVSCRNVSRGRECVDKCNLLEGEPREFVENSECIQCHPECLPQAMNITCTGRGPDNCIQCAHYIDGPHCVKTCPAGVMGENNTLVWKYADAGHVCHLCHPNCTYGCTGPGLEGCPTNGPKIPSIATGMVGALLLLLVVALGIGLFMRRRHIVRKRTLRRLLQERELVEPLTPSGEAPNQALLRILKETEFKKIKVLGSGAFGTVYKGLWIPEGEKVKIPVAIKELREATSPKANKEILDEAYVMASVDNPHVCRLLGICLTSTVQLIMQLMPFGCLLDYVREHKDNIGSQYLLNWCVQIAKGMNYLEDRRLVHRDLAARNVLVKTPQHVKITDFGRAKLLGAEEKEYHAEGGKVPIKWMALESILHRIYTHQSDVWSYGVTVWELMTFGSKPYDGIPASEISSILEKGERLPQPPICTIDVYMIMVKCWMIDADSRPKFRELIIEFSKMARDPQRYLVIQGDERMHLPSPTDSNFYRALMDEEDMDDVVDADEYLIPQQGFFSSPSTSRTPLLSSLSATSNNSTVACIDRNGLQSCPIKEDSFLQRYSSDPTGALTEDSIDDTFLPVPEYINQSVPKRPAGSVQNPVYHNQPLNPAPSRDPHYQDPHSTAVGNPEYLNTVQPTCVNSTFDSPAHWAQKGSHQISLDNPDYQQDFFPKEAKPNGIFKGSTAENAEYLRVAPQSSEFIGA
Method in brief: as §1

EGFR Exon19Del = target: T8, EGFR Exon19Del (Homo sapiens, UniProt P00533, DEL746-750); assay: Inhibition of EGFR Exon19Del biochemical enzymatic activity (HTRF); conditions: EGFR Del19, 1 mM ATP, 1 h, room temperature, read-out: IC50 @Del19
T8 construct: purchased Carna Bio
Method in brief: as §1

EGFR L858R = target: T9, EGFR L858R (Homo sapiens, UniProt P00533, L858R); assay: Inhibition of EGFR L858R biochemical enzymatic activity (HTRF); conditions: 1 mM ATP, 1 h, room temperature, read-out: IC50 (nM) @L858R
T9 construct: purchased Carna Bio
T9 sequence (P00533 25-1210 L858R): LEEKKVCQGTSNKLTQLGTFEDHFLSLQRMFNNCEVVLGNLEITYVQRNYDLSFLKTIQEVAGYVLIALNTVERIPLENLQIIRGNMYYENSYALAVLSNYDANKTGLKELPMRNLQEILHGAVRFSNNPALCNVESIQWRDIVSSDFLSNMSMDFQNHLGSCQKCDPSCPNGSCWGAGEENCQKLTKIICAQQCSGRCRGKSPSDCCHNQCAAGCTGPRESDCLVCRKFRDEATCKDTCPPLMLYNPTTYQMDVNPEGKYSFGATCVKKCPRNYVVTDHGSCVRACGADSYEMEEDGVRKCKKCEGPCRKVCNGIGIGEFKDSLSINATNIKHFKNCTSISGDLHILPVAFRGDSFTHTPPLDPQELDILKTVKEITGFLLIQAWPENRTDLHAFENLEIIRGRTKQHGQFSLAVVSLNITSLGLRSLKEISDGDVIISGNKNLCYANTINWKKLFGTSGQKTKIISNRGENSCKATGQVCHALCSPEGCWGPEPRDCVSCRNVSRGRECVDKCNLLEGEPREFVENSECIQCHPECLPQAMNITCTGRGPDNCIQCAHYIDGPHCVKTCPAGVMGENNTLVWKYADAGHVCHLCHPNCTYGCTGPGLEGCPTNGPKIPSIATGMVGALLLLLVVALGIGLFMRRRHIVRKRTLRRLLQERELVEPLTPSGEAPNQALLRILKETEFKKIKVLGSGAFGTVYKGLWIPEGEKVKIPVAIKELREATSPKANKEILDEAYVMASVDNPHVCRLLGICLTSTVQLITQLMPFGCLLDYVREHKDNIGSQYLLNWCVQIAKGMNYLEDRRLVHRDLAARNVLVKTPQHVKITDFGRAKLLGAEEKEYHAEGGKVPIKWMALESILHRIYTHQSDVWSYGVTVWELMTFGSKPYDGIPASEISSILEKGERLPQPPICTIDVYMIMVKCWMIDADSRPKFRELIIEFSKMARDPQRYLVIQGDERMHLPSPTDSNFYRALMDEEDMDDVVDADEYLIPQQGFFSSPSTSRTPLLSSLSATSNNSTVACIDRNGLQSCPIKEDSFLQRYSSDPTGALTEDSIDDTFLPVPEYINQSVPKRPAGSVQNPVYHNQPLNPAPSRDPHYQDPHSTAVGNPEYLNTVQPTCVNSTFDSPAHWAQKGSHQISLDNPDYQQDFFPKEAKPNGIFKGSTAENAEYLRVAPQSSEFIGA
Method in brief: as §1

[3] = BaF3 cells, EGFR DEL19-C797S, read-out: DEL19-C797S/BaF3 GI50
[4] = BaF3 cells, EGFR DEL19-T790-C797S, read-out: DEL19-T790-C797S/BaF3 GI50
[5] = BaF3 cells, EGFR L858R, read-out: L858R/BaF3 GI50
[6] = BaF3 cells, EGFR L858R-C797S, read-out: L858R-C797S/BaF3 GI50
[7] = BaF3 cells, EGFR L858R-T790-C797S, read-out: L858R-T790-C797S/BaF3 GI50
[8] = BaF3 cells, EGFR L858R-T790M, read-out: L858R-T790M/BaF3 GI50
[9] = EGFR DEL19-T790M, read-out: DEL19-T790M GI50

T1 sequence (P00533 25-1210): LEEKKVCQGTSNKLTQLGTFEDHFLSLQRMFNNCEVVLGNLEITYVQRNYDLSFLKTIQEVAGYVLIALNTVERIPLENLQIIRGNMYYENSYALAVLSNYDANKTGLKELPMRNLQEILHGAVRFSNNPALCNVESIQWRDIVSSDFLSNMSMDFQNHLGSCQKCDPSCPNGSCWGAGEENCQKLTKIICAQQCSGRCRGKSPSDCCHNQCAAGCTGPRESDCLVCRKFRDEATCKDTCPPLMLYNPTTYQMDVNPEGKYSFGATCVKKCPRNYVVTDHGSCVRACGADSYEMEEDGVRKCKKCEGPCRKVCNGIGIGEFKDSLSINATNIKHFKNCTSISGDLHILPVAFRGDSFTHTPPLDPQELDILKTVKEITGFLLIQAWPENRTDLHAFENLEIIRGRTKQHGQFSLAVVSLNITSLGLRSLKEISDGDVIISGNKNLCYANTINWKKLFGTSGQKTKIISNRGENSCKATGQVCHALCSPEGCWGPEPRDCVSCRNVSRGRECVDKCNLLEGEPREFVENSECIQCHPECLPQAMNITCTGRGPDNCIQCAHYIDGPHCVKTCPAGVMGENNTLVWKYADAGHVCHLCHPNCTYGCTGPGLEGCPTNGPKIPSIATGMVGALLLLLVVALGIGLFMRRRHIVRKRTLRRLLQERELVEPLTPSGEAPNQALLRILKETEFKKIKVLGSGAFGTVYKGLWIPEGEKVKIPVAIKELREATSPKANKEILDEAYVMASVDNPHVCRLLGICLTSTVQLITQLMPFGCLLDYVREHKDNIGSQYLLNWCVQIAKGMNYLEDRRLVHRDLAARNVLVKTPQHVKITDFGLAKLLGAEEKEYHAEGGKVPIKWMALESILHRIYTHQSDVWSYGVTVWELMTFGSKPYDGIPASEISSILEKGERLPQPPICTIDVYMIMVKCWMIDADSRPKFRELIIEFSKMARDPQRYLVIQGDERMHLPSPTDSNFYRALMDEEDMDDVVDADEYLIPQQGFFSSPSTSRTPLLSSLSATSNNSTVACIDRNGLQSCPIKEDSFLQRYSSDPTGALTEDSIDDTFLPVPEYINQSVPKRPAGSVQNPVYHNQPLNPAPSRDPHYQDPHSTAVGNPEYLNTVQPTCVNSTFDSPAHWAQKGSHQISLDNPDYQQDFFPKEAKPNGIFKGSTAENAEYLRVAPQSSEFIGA

IC50 (EGFR wild type) [nM]	IC50 (EGFR (C797S L858R)) [nM]	IC50 (EGFR (d746-750 C797S)) [nM]	GI50 (A-431; A-431 cells) [nM]	IC50 (EGFR Exon19Del/T790M) [nM]	IC50 (EGFR[T790M/C797S/L858R]) [nM]	GI50 [1, 3] [nM]	GI50 [1, 4] [nM]	GI50 [1, 5] [nM]	GI50 [1, 6] [nM]	GI50 [1, 7] [nM]	GI50 [1, 8] [nM]	GI50 [1, 9] [nM]	GI50 (PC-9) [nM]	IC50 [2] [nM]	IC50 (EGFR L858R/T790M) [nM]	IC50 (EGFR Exon19Del) [nM]	IC50 (EGFR L858R) [nM]	GI50 (A-431; Homo sapiens, A-431, A-431 cells) [nM]	Compound
> 5000	> 5000	1560	1660	> 5000	> 5000	114	254	323	284	539	944	209	981	> 5000	> 5000	830	4740		Cn1ncc2c1OCCN1CC3CCC(C3)(C1)n1c(nc3ccc(N4CCC(N5CC(F)C5)C4)cc31)NC(=O)c1cc-2c(=O)n(C)c1 (single isomer, unassigned) [Example A94A, 5-[3-(3-Fluoroazetidin-1-yl)pyrrolidin-1-yl]-15,21-dimethyl-23-oxa-2,9,11,15,20,21,26-heptaazaheptacyclo[24.4.1.1^{1,28}.1^{13,17}.0^{2,10}.0^{3,8}.0^{18,22}]tritriaconta-3,5,7,9,13,17(33),18(22),19-octaene-12,16-dione]
148	15	3.7	1110	7.1	5	0.73	6.5	2	6	3.9	12	3	16	5	8.8	10	27		Cn1ncc2c1OCCN1CC3CCC(C3)(C1)n1c(nc3ccc(N4CCC(N5CC(F)C5)C4)cc31)NC(=O)c1cc-2c(=O)n(C)c1 (single isomer, unassigned) [Example A94B1, 5-[3-(3-Fluoroazetidin-1-yl)pyrrolidin-1-yl]-15,21-dimethyl-23-oxa-2,9,11,15,20,21,26-heptaazaheptacyclo[24.4.1.1^{1,28}.1^{13,17}.0^{2,10}.0^{3,8}.0^{18,22}]tritriaconta-3,5,7,9,13,17(33),18(22),19-octaene-12,16-dione]
289	30	4.5	1980	6.3	9.7	0.77	8.5	3.3	7.2	5.4	14	5	30	5.2	9.7	8.9	45		Cn1ncc2c1OCCN1CC3CCC(C3)(C1)n1c(nc3ccc(N4CCC(N5CC(F)C5)C4)cc31)NC(=O)c1cc-2c(=O)n(C)c1 (single isomer, unassigned) [Example A94B2, 5-[3-(3-Fluoroazetidin-1-yl)pyrrolidin-1-yl]-15,21-dimethyl-23-oxa-2,9,11,15,20,21,26-heptaazaheptacyclo[24.4.1.1^{1,28}.1^{13,17}.0^{2,10}.0^{3,8}.0^{18,22}]tritriaconta-3,5,7,9,13,17(33),18(22),19-octaene-12,16-dione]

The remaining lines, values behind:

Compound	IC50 (EGFR wild type) [nM]	IC50 (EGFR (C797S L858R)) [nM]	IC50 (EGFR (d746-750 C797S)) [nM]	GI50 (A-431; A-431 cells) [nM]	IC50 (EGFR Exon19Del/T790M) [nM]	IC50 (EGFR[T790M/C797S/L858R]) [nM]	GI50 [1, 3] [nM]	GI50 [1, 4] [nM]	GI50 [1, 5] [nM]	GI50 [1, 6] [nM]	GI50 [1, 7] [nM]	GI50 [1, 8] [nM]	GI50 [1, 9] [nM]	GI50 (PC-9) [nM]	IC50 [2] [nM]	IC50 (EGFR L858R/T790M) [nM]	IC50 (EGFR Exon19Del) [nM]	IC50 (EGFR L858R) [nM]	GI50 (A-431; Homo sapiens, A-431, A-431 cells) [nM]
COCCN(C)c1ccc2nc3n(c2c1)C12CCC(CN(CCOc4c(cnn4C)-c4cc(cn(C)c4=O)C(=O)N3)C1)C2 (single isomer, unassigned) [Example A90B]	825	31	3.5	3160	5.9	9.3	0.75	3.9	4.6	8	15	14	3.2	46	4.9	10	6.3	54	
CN1CCC2(CN(c3ccc4nc5n(c4c3)C34CCC(CN(CCOc6c(cnn6C)-c6cc(cn(C)c6=O)C(=O)N5)C3)C4)C2)C(F)(F)C1 (single isomer, unassigned) [Example A91A]	> 5000	> 5000	1650		> 5000	> 5000	74	146	324	303	366	884	231	1300	> 5000	> 5000	740	3720	1180
CN1CCC2(CN(c3ccc4nc5n(c4c3)C34CCC(CN(CCOc6c(cnn6C)-c6cc(cn(C)c6=O)C(=O)N5)C3)C4)C2)C(F)(F)C1 (single isomer, unassigned) [Example A91B]	110	8	2.9	1690	9.7	6.1	0.75	2.2	2.6	3.9	4.6	11	3.1	25	6.7	12	4	11	
CN1CC2(C1)CN(c1ccc3nc4n(c3c1)C13CCC(CN(CCOc5c(cnn5C)-c5cc(cn(C)c5=O)C(=O)N4)C1)C3)C2 (single isomer, unassigned) [Example A92A]	> 5000	2790	449	2100	> 5000	> 5000	102	112	113	122	152	310	80	522	3960	> 5000	573	1150	
CN1CC2(C1)CN(c1ccc3nc4n(c3c1)C13CCC(CN(CCOc5c(cnn5C)-c5cc(cn(C)c5=O)C(=O)N4)C1)C3)C2 (single isomer, unassigned) [Example A92B]	16	2.6	1	842	2.6	2.2	0.5	1.1	0.82	1.6	0.94	3	1.2	9.8	2.3	2.3	1.5	3.2	
